# Source: patent US20090068207A1, “Compositions Containing Beta 2-Glycoprotein I-Derived Peptides for the Prevention and/or Treatment of Vascular Disease” (Vascular Biogenics Ltd., priority 2005, published 2009)
# Where “and” joins values, the source holds several entries; their conditions need not be identical. Equal values may be shown once.
# Columns and labels:
# LDL-RD mice [1] = experiment: Aortic sinus lesion area after oral administration, Western diet; assay type: in vivo; settings: for Aortic sinus lesion (μm^2): End, oral 100 μg, mean ± S.E
# Protocol: Oral Tolerance: For comparison, oral tolerance to plaque-associated molecules was induced by feeding […] of antigen every other day (for a detailed account of induction of oral tolerance, see U.S. patent application Ser. No. 09/806,400 to Shoenfeld et al filed Sep. 30, 1999), in a similar regimen to the nasal tolerance. LDL-RD mice were fed by a nasogastric tube, five doses (every other day) of human or bovine β2GPI in PBS in two different concentrations (500 and 50 μg/dose).
# Oral tolerance to β2GPI-derived peptides, alone or in combination was induced by feeding 100 μg of the peptides (prepared in PBS, 0.2 ml), as detailed hereinabove, every other day for a total of 5 doses of 100 μg. One day following the last feeding, all mice were switched from chow-diet to an atherogenic “Western” diet and sacrificed five weeks later.
# (§1) Assessment of Atherosclerosis: Quantification of atherosclerotic fatty streak lesions was done by calculating the lesion size in the aortic sinus as previously described (16) and by calculating the lesion size in the aorta. Briefly, after perfusion with saline Tris EDTA, the heart and the aorta were removed from the animals and the peripheral fat cleaned carefully. The upper section of the heart was embedded in OCT medium (10.24% w/w polyvinyl alcohol; 4.26% w/w polyethylene glycol; 85.50% w/w nonreactive ingredients) and frozen. Every other section (10 μm thick) throughout the aortic sinus (400 μm) was taken for analysis. The distal portion of the aortic sinus was recognized by the three valve cusps that are the junctions of the aorta to the heart. […] Lesion areas per section were scored on a grid (17) by an observer counting unidentified, numbered specimens. The aorta was dissected from the heart and surrounding adventitious tissue was removed. Fixation of the aorta and Sudan staining of the vessels were performed as previously described (21).
# LDL-receptor deficient (LDL-RD; LDLR −/−) mice created on a C57BL/6 background develop accelerated atherosclerosis when fed a high cholesterol diet, but not when fed a regular chow diet. In order to determine whether mucosal administration of the plaque antigen β2GPI could suppress atherogenic processes, LDL-RD mice were fed low, oral tolerance inducing doses of human and bovine β2GPI, and the assessed for alterations in response to diet.
# lymph node cells = experiment: Lymph node cell proliferation (stimulation index) to oxLDL after oral administration; assay type: in vivo, mice; settings: oral, LDL-RD mice immunized with OxLDL; for effect on Stimulation Index of sensitized lymph node cells in response to OxLDL / Stimulation index / reduction in Stimulation Index of OxLDL-sensitized lymph node cells: 3 doses of 100 μg; for Stimulation index: OxLDL challenge, mean ± S.E.
# Protocol: Proliferation was measured by the incorporation of [^3H] thymidine into DNA during the final 12 h of incubation. The results were computed as stimulation index: the ratio of the mean cpm of the antigen to the mean background cpm obtained in the absence of the antigen.
# […] Three days after the final administration of peptides, the mice were immunized with OxLDL in incomplete Freund's adjuvant, as described in the Examples above, and lymph node cells assessed for antigen (OxLDL) stimulation of proliferation 10 days later. Proliferation was assessed by incorporation of thymidine, expressed as the Stimulation Index, as described.
# LDL-RD mice [2] = experiment: Aortic sinus lesion area after intraperitoneal immunization with incomplete Freund's adjuvant; assay type: in vivo; settings: for Aortic sinus lesion (μm^2): End, intraperitoneal with incomplete Freund's adjuvant, head 100 μg, mean ± S.E
# Protocol: Intraperitoneal immunization with human β2GPI-derived peptides: human β2GPI-derived peptides were dissolved in PBS and mixed with equal volumes of Freund's incomplete adjuvant. […] One week following the last immunization, the diet was switched from chow to atherogenic “Western” diet for five weeks, and then the mice were sacrificed.
# as §1
# Immunization with Human β2GPI-derived peptides mildly attenuates the early atherogenesis in LDL RD mice: In order to compare the effects of different modes of administration of human β2GPI-derived peptides on atherosclerosis, human β2GPI-derived peptides and human β2GPI were administered intraperitoneally (IP) with incomplete Freund's adjuvant, in LDL RD mice, effectively immunizing the mice, as opposed to the tolerance effected by mucosal administration.
# Data presented in FIG. 11, and Table 7, clearly indicates a non-specific inhibitory effect of immunization (see PBS vs Non-immunized) on the size of the aortic sinus lesions in the susceptible LDL RD mice. On an average, immunization with the human β2GPI-derived peptides was equally, if not more, effective in inhibiting atherogenesis as immunization with human β2GPI, or with PBS prepared in incomplete Freund's adjuvant. In contrast to the protection achieved with mucosal administration, the different peptides S-1, S-2, S-3 and S-4 provided widely divergent, and diminished (34% or less) degrees of protection, as compared with controls.
# LDL-RD mice [3] = experiment: Aortic sinus lesion area after nasal tolerance induction, Western diet; assay type: in vivo
# Protocol: Nasal Tolerance: Nasal tolerance was induced by intranasal administration of oxidized LDL, β2GPI, β2GPI-derived peptides or HSP65, in a total volume of 10 μl PBS. Intranasal administration was performed on mildly sedated mice (12-16 weeks old), each mouse receiving 3 doses of antigen per dose, in the indicated concentrations, every other day. Atherogenesis was induced by 5 weeks of a Western diet initiated on the day following the last intranasal administration, or assessed (in Apo E KO mice) after 8 weeks on a chow diet. Controls received equal amounts of BSA and/or PBS, as indicated, in an identical regimen. Plasma was obtained for assessment of cholesterol and triglyceride levels from all mice, and the mice were sacrificed for evaluation of atherosclerosis, as described hereinbelow, after 5 weeks Western diet, or (in Apo E KO mice) after 8 weeks on a chow diet.
# Assessment of Atherosclerosis: Quantification of atherosclerotic fatty streak lesions was done by calculating the lesion size in the aortic sinus as previously described (16) and by calculating the lesion size in the aorta. Briefly, after perfusion with saline Tris EDTA, the heart and the aorta were removed from the animals and the peripheral fat cleaned carefully. The upper section of the heart was embedded in OCT medium (10.24% w/w polyvinyl alcohol; 4.26% w/w polyethylene glycol; 85.50% w/w nonreactive ingredients) and frozen. Every other section (10 μm thick) throughout the aortic sinus (400 μm) was taken for analysis. The distal portion of the aortic sinus was recognized by the three valve cusps that are the junctions of the aorta to the heart. Sections were evaluated for fatty streak lesions after processing and staining with oil-red O, according to Paigen et al (Atherosclerosis, 1987; 68:231-40). Lesion areas per section were scored on a grid (17) by an observer counting unidentified, numbered specimens. The aorta was dissected from the heart and surrounding adventitious tissue was removed. Fixation of the aorta and Sudan staining of the vessels were performed as previously described (21).
# Mice were bled prior to feeding (Time 0) and at the conclusion of the experiment (End) for determination of lipid profile. Atherosclerosis was assessed in heart and aorta as described above, 8 weeks after the last feeding. Mice were weighed every 2 weeks during the experiment. All mice were fed water ad libitum and a normal chow-diet containing 4.5% fat by weight (0.02% cholesterol), up to the final antigen exposure, and then a “Western” diet until sacrifice.
# Thus, nasal exposure to a low dose and an exceedingly low dose of recombinant human HSP 65 were compared for their effectiveness in suppressing atherogenesis in LDL-RD mice. 58 male 12-16 week old LDL-RD mice were divided into 4 groups.
# ApoE-KO mice [4] = experiment: Aortic sinus lesion area after nasal administration in ApoE-KO mice; assay type: in vivo; settings: End, nasal 10 μg/mouse, mean ± S.E
# Protocol: Nasal Tolerance: Nasal tolerance was induced by intranasal administration of oxidized LDL, β2GPI, β2GPI-derived peptides or HSP65, in a total volume of 10 μl PBS. Intranasal administration was performed on mildly sedated mice (12-16 weeks old), each mouse receiving […] of antigen per dose, in the indicated concentrations, every other day. Atherogenesis was induced by 5 weeks of a Western diet initiated on the day following the last intranasal administration, or assessed (in Apo E KO mice) after 8 weeks on a chow diet. Controls received equal amounts of BSA and/or PBS, as indicated, in an identical regimen. Plasma was obtained for assessment of cholesterol and triglyceride levels from all mice, and the mice were sacrificed for evaluation of atherosclerosis, as described hereinbelow, after 5 weeks Western diet, or (in Apo E KO mice) after 8 weeks on a chow diet.
# Assessment of Atherosclerosis: Quantification of atherosclerotic fatty streak lesions was done by calculating the lesion size in the aortic sinus as previously described (16) and by calculating the lesion size in the aorta. Briefly, after perfusion with saline Tris EDTA, the heart and the aorta were removed from the animals and the peripheral fat cleaned carefully. […] Lesion areas per section were scored on a grid (17) by an observer counting unidentified, numbered specimens. […]
# ApoE-KO mice [5] = experiment: Aortic sinus lesion area after oral administration in ApoE-KO mice; assay type: in vivo; settings: oral 50 μg, 5 doses
# From the text: as §1, with “Fixation of the aorta and Sudan staining of the vessels were performed as previously described (21).” left out
# In order to determine the protective effect of mucosal administration of β2GPI on development of atherosclerosis, adult ApoE-KO mice were treated with oral administration of human β2GPI. […] Lesion area calculated from cryosections of the aortic sinus were compared between control untreated 20 week old mice, and mice following 16 weeks oral administration of β2GPI or PBS. […]
Substance,Aortic sinus lesion (μm^2) (LDL-RD mice [1]),effect on Stimulation Index of sensitized lymph node cells in response to OxLDL (lymph node cells),Stimulation index (lymph node cells),Aortic sinus lesion (μm^2) (LDL-RD mice [2]),reduction in Stimulation Index of OxLDL-sensitized lymph node cells (lymph node cells) [%],also measured
ECLPQHAMFGNDTITCTTHGN [Peptide S-2],23636 ± 3857,mildly reduced,168 ± 72,24050 ± 7755,–,–
GDKVSFFCKNKE [Peptide S-4-4],–,–,–,–,–,"decrease of Stimulation Index as compared with PBS-treated controls (lymph node cells; 5 doses of 100 μg, OxLDL stimulation): ~50% and ~60%"
HSP-65: recombinant mycobacterial heat shock protein HSP 65,–,–,–,–,–,"Aortic sinus lesion (μm^2) (LDL-RD mice [3]; END, intranasal 10 μg/mouse every other day for 5 days, then Western diet, mean ± S.E): 44375 ± 5437 μm^2; protection from atherogenesis (LDL-RD mice [3]; nasal, exceedingly low doses (1 μg/mouse)): approximately 70%"
MLHGDKVSFFCKNKEKKCSYT [Peptide S-4],21125 ± 2482,–,17 ± 10,23758 ± 5767,94,"Aortic sinus lesion (μm^2) (ApoE-KO mice [4]): 107953 ± 10158 μm^2; reduction of atherosclerosis (aortic sinus lesion size) as compared with BSA- and PBS-fed controls (LDL-RD mice [1]; oral 100 μg/dose, 5 doses, Western diet 5 weeks): 61%; Aortic sinus lesion (μm^2) (ApoE-KO mice [5]; End, ApoE-KO mice): 81923 ± 9191 μm^2; reduction of progression of atherosclerotic lesions compared to PBS controls (ApoE-KO mice [5]; then 8 weeks of chow diet, 10-11 week-old ApoE-KO mice): > 50%"
SCKVPVKKATVVYQGERVKIQ [Peptide S-3],29269 ± 3307,–,20 ± 6,45329 ± 14667,93,anti-atherogenic effect as compared to PBS+IFA (LDL-RD mice [2]; intraperitoneal immunization): without any significant anti-atherogenic effect
VCPFAGILENGAVRYTTFEY [Peptide S-1],26750 ± 4698,mildly reduced,246 ± 79,29968 ± 6032,–,–
